# “Also recorded” adds a separate entry of the source.
# Columns and labels:
# MDP = biological target: T1, MDP (Mus musculus, UniProt P31428); test: inhibition of MDP activity (hydrolysis of Gly-D-Phe, fluorimetric); format: biochemical, murine; conditions: Gly-D-Phe 0.5 mM; extracts from MDP-expressing COS-1 cells; listed as GFE-1
# T1 construct: The amplified 1.3 kb murine MDP cDNA was digested with KpnI and XbaI, and inserted into the same sites of the pcDNA3 expression vector; expressed in transfected cells; host or cells: COS-1 cells, pcDNA3 expression vector
# T1 sequence (P31428 17-384): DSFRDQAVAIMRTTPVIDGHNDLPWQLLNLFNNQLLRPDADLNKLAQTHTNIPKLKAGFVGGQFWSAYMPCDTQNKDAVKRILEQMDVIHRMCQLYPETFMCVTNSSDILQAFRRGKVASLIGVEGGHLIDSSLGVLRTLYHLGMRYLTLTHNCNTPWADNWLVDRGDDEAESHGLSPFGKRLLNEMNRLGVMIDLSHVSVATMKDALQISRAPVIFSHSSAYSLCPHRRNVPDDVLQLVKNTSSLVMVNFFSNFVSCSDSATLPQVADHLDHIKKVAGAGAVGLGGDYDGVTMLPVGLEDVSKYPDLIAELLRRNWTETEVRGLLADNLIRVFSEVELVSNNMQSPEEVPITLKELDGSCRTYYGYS
# Method: […] […] Fluorescence was measured using an fmax fluorescence microplate reader from Molecular Devices (Sunnyvale, Calif.).
# Phage binding to COS-1 cells transfected with MDP was determined as follows. Briefly, 10^7 COS-1 cells were transfected with 10 μg of either the MDP expression vector or the vector alone. After 48 hours, cells were scraped gently from the dish, washed once, and subjected to the phage binding assay or membrane dipeptidase activity assay described above. For the phage binding assay, 5×10^6 cells and 10^10 transducing units (TU) of phage input were used. For measurement of membrane dipeptidase activity, 10^6 cells were lysed in 100 μl of PBS/octylglycoside without protease inhibitors. A 10 μl aliquot of the extract was used to measure MDP activity.
# Fluorimetric detection of D-Phe was performed as described above.
# lung = test: in vivo homing of phage displaying peptides to lung; set-up: species or system mice; conditions: for homing of lung homing phage to control kidney or brain: control organs
# Method: For lung and pancreas, a mixture of phage libraries containing 10^10 TU was diluted in 200 μl DMEM and injected into the tail vein of anesthetized BALB/c mice (2 month old; Harlan Sprague Dawley; San Diego Calif.); AVERTIN (0.017 ml/g) was used as anesthetic (Pasqualini and Ruoslahti, supra, 1996). After 1-4 minutes, mice were snap frozen in liquid nitrogen or, after about 5 minutes of phage circulation, the mice were perfused through the heart with 5-10 ml of DMEM (SIGMA; St. Louis Mo.). To recover the phage, the organs from the perfused mice or partially thawed organs from snap frozen mice were collected and weighed, then were homogenized in 1 ml DMEM-PI (DMEM containing protease inhibitors (PI); phenylmethyl sulfonyl fluoride (PMSF; 1 mM), aprotinin (20 μg/ml), leupeptin (1 μg/ml)).
# Organ samples were washed 3 times with ice cold DMEM-PI containing 1% bovine serum albumin (BSA), then directly incubated with 1 ml K91-kan bacteria for 1 hr. Ten ml NZY medium containing 0.2 μg/ml tetracycline (NZY/tet) was added to the bacterial culture, the mixture was incubated in a 37° C. shaker for 1 hr, then 200 μl aliquots were plated in agar plates containing 40 μg/ml tetracycline (tet/agar).
# Approximately 250 to 300 individual bacterial colonies containing phage recovered from the various organs or tissues were grown for 16 hr in 5 ml NZY/tet. In some experiments, approximately 1000 individual bacteria containing phage were picked and the phage were amplified in 2 ml of NZY/tet or the entire plate containing phage was scraped, pooled and grown in bulk and processed for injection. Where phage were cultured separately, the cultures were pooled and the phage were injected into mice or rats as described above for a second round of in vivo panning. In some experiments, a third or fourth round of panning was performed. Phage DNA was purified from individual bacterial colonies obtained and the DNA sequences encoding the peptides expressed by selected phage were determined (see Koivunen et al., supra, 1994b).
# After two or three rounds of in vivo panning of mice injected with a cyclic CX3CX3CX3C (SEQ ID NO: 25) or a cyclic CX6C (SEQ ID NO: 26) phage display library, four peptides that homed to lung were identified.
# To determine the specificity of lung homing of the individual peptides identified, phage displaying the peptides were amplified individually, diluted to the same input titer and administered to mice. Following administration, control kidney and brain organ was removed and the number of TU of phage in lung, kidney and brain was determined. The results shown in FIG. 2 reveal that 10× and 35× more phage having the peptide sequence CGFECVRQCPERC (SEQ ID NO: 1; GFE-1) bound to lung than to kidney and brain, respectively. […] The lung homing peptides CGFECVRQCPERC (SEQ ID NO: 1; GFE-1), CGFELETC (SEQ ID NO: 2; GFE-2), CTLRDRNC (SEQ ID NO: 15) and CIGEVEVC (SEQ ID NO: 16) are enriched in lung at 35×, 9×, 6× and 5×, respectively, over unselected phage (see FIG. 2).
# [1] = individually amplified phage, FIG. 2
sequence,measurement,setting,value
CGFECVRQCPERC [lung homing peptide],inhibition of hydrolysis of Gly-D-Phe by MDP,MDP,inhibits hydrolysis of the Gly-D-Phe substrate in a dose-dependent manner; also recorded: inhibited hydrolysis of the Gly-D-Phe substrate (0.5 mM) in a dose-dependent manner; also recorded: inhibition of MDP activity
same,% OF MOTIF AMONG ALL CLONES,lung; LUNG,40%
same,LUNG/BRAIN RATIO,lung; LUNG section,60
same,homing of lung homing phage to control kidney or brain,lung,few phage detected in kidney or brain; also recorded: no selective homing to kidney or brain was detected
same,homing of lung homing phage to control kidney or brain,lung; listed as GFE-1,no specific phage homing to kidney was detected
same,enriched in lung over unselected phage,lung; [1],35 ×
same,phage bound to lung than to brain,lung; [1],35 ×
same,phage bound to lung than to kidney,lung; [1],10 ×

# Reference: patent publication US6784153B1, “Methods of homing molecules to lung using membrane dipeptidase” (The Burnham Institute, priority 1998, dated 2004)
